Measurements taken from paper PMC5869189 (Frontiers in Immunology, 2018).
Where “and” joins values, the source holds several entries; their conditions need not be identical. Identical values can stand only once.

Tests used:
[1] = system: PBMC from healthy, seropositive donors; format: cell-based, human
HLA-DRB1*04 = format: binding, human; parameters: reference not given here; settings: 24–72 h at 37°C
HLA-DRB1*07 = format: binding, human; parameters: reference not given here; settings: 24–72 h at 37°C
HLA-DRB1*09 = format: binding, human; parameters: reference not given here; settings: 24–72 h at 37°C
HLA-DRB1*11:01 = biological target: T1, HLA-DRB1*11:01 (Homo sapiens, UniProt P01903+P01911, A100R/A169T/A87E/I96F/K41T/L162R/M171V/P40S/Q125H/Q178H/Q39Y/Q99D/R42S/S66Y/T262R/V115G/W38E); format: binding; parameters: reference not given here; settings: 24–72 h at 37°C
T1 construct: Purified HLA-DR heterodimers derived from the relevant EBV B-lymphoblastoid cell lines; endogenous in cells

HLA-DRB1*12:02 = HLA-DRB1*12:02 (Homo sapiens, UniProt P01903+P01911, A100R/A169T/D57E/D86V/F55L/H45Y/I96F/K41T/L162R/M171V/P40S/Q125H/Q178H/Q39Y/Q99D/R42G/S66L/T262R/V114A/V67L/W38E/Y59H/Y61H/Y89S); format: binding; parameters: reference not given here; settings: 24–72 h at 37°C
HLA-DRB1*15:01 = biological target: T2, HLA-DRB1*15:01 (Homo sapiens, UniProt P01903+P01911); format: binding; parameters: reference not given here; settings: 24–72 h at 37°C
T2 construct: Purified HLA-DR heterodimers derived from the relevant EBV B-lymphoblastoid cell lines; endogenous in cells

HLA-DRB1*15:02 = biological target: T3, HLA-DRB1*15:02 (Homo sapiens, UniProt P01903+P01911, V115G); format: binding; parameters: reference not given here; settings: 24–72 h at 37°C
T3 construct: Purified HLA-DR heterodimers derived from the relevant EBV B-lymphoblastoid cell lines; endogenous in cells

[2] = system: PBMC from melioidosis patients and control donors; format: cell-based, human
[3] = system: HLA class-II heterodimers (HLA DRB1*04, 07, 09, 11:01, 12:02, 15:01, 15:02); format: binding, human
[4] = system: HLA-DQB1*0602 and HLA-DQB1*0302; settings: cited from earlier work

T3 sequence (P01903 26-254, other chains not shown): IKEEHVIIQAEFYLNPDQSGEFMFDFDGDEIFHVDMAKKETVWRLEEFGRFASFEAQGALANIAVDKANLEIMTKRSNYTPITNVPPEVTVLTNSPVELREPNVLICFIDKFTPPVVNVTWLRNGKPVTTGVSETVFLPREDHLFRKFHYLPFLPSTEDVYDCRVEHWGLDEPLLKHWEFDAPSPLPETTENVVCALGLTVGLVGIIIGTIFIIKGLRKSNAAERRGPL
T1 sequence (P01903 26-254, other chains not shown): as above

Sequence: VVVATGYTDRIGSDKYNDRL [BPSL2522_P14]
- % Responders [1]: 100%
- Median SFC/10^6 PBMCs (IFN-g) [1]: 290
- HLA binding, relative HLA binding affinity (HLA-DRB1*04): >145
- HLA binding, relative HLA binding affinity (HLA-DRB1*07): >336
- HLA binding, relative HLA binding affinity (HLA-DRB1*09): >689
- HLA binding, relative HLA binding affinity (HLA-DRB1*11:01): >278
- HLA binding, relative HLA binding affinity (HLA-DRB1*12:02): >136
- HLA binding, relative HLA binding affinity (HLA-DRB1*15:01): 10
- HLA binding, relative HLA binding affinity (HLA-DRB1*15:02): 1 826
- IFNγ response compared between cohorts (Figure 2) [2]: lower in recovered patients than in seropositive healthy donors
- IFNγ response, acute septicemic melioidosis compared with recovered individuals (Figure 3) [2]: lower during acute disease

Sequence: NQNPQITASVVGYTDSTGSA [BPSL0999_P14]
- % Responders [1]: 95.7% and 96%
- Elispot, Median SFC/10^6 PBMCs of HLA donors [1]: 583 SFC/10^6 PBMCs and 417 SFC/10^6 PBMCs and 601 SFC/10^6 PBMCs and 460 SFC/10^6 PBMCs and 567 SFC/10^6 PBMCs and 588 SFC/10^6 PBMCs and 489 SFC/10^6 PBMCs
- Median SFC/10^6 PBMCs (IFN-g) [1]: 373
- HLA binding, relative HLA binding affinity (HLA-DRB1*04): 33
- HLA binding, relative HLA binding affinity (HLA-DRB1*07): 30.2
- HLA binding, relative HLA binding affinity (HLA-DRB1*09): 37
- HLA binding, relative HLA binding affinity (HLA-DRB1*11:01): 189
- HLA binding, relative HLA binding affinity (HLA-DRB1*12:02): >136
- HLA binding, relative HLA binding affinity (HLA-DRB1*15:01): 1
- HLA binding, relative HLA binding affinity (HLA-DRB1*15:02): 542

Sequence: RGVAANRLSAQGMGASNPIA [BPSL0999_P18]
- % Responders [1]: 93.6% and 94%
- Elispot, Median SFC/10^6 PBMCs of HLA donors [1]: 617 SFC/10^6 PBMCs and 415 SFC/10^6 PBMCs and 456 SFC/10^6 PBMCs and 487 SFC/10^6 PBMCs and 634 SFC/10^6 PBMCs and 616 SFC/10^6 PBMCs and 441 SFC/10^6 PBMCs
- Median SFC/10^6 PBMCs (IFN-g) [1]: 375
- HLA binding, relative HLA binding affinity (HLA-DRB1*04): 82
- HLA binding, relative HLA binding affinity (HLA-DRB1*07): 11
- HLA binding, relative HLA binding affinity (HLA-DRB1*09): 367
- HLA binding, relative HLA binding affinity (HLA-DRB1*11:01): 72
- HLA binding, relative HLA binding affinity (HLA-DRB1*12:02): 14
- HLA binding, relative HLA binding affinity (HLA-DRB1*15:01): 157
- HLA binding, relative HLA binding affinity (HLA-DRB1*15:02): >3 333

Sequence: PAGKQKLDELAAKIQGMNVE [BPSL2522_P12]
- % Responders [1]: 97.1% and 97%
- Median SFC/10^6 PBMCs (IFN-g) [1]: 308
- HLA binding, relative HLA binding affinity (HLA-DRB1*04): >145
- HLA binding, relative HLA binding affinity (HLA-DRB1*07): 333
- HLA binding, relative HLA binding affinity (HLA-DRB1*09): >689
- HLA binding, relative HLA binding affinity (HLA-DRB1*11:01): 77
- HLA binding, relative HLA binding affinity (HLA-DRB1*12:02): 40
- HLA binding, relative HLA binding affinity (HLA-DRB1*15:01): >270
- HLA binding, relative HLA binding affinity (HLA-DRB1*15:02): >3 333

Sequence: KDFTFVCPTEIVEFAKLAKQ [BPSL2096_P6]
- % Responders [1]: 82.4% and 82%
- Median SFC/10^6 PBMCs (IFN-g) [1]: 333
- HLA binding, relative HLA binding affinity (HLA-DRB1*04): 9
- HLA binding, relative HLA binding affinity (HLA-DRB1*07): 0.3
- HLA binding, relative HLA binding affinity (HLA-DRB1*09): 18
- HLA binding, relative HLA binding affinity (HLA-DRB1*11:01): 43
- HLA binding, relative HLA binding affinity (HLA-DRB1*12:02): 25
- HLA binding, relative HLA binding affinity (HLA-DRB1*15:01): 7
- HLA binding, relative HLA binding affinity (HLA-DRB1*15:02): 222
- IFNγ response, acute septicemic melioidosis compared with recovered individuals (Figure 3) [2]: lower during acute disease
- HLA class-II binding across the panel (in words) [3]: moderate to high affinity
- Presentation through HLA-DQ [4]: can be presented also through HLA-DQB1*0602 and HLA-DQB1*0302
